Measured values as given in the NIST ThermoML archive (doi:10.1016/j.jct.2016.10.009).

Assay: xn = mol fraction of the nth substance listed
Settings: Liquid, Vibrating tube method

CC(C)OC(C)C [diisopropyl ether] + CCC(C)O
mass density [kg/m3]
Settings | x2 = 0 | x2 = 0.2036 | x2 = 0.3227 | x2 = 0.4464 | x2 = 0.4973 | x2 = 0.6595 | x2 = 0.8482
373.24 K, 20000 kPa | – | – | 693 | 701.7 | 705.7 | 719.1 | 736.5
373.24 K, 25000 kPa | 680.8 | 692.1 | 699.7 | 708.2 | 712 | 725.1 | 741.9
373.24 K, 30000 kPa | 687.6 | 698.6 | 706 | 714.3 | 718 | 730.6 | 747.1
373.24 K, 35000 kPa | 693.8 | 704.4 | 711.7 | 719.8 | 723.4 | 735.7 | 751.9
373.24 K, 40000 kPa | 699.6 | 710 | 717.1 | 725 | 728.5 | 740.7 | 756.3
373.24 K, 45000 kPa | 705 | 715.3 | 722.2 | 730 | 733.5 | 745.3 | 760.7
373.24 K, 50000 kPa | 710.1 | 720.1 | 726.9 | 734.6 | 738 | 749.6 | 764.7
373.24 K, 55000 kPa | 714.9 | 724.9 | 731.5 | 739 | 742.4 | 753.8 | 768.7
373.24 K, 60000 kPa | 719.5 | 729.2 | 735.8 | 743.2 | 746.5 | 757.8 | 772.4
373.24 K, 65000 kPa | 723.9 | 733.4 | 740 | 747.3 | 750.6 | 761.6 | 776
373.24 K, 70000 kPa | 728.1 | 737.4 | 743.9 | 751.1 | 754.3 | 765.2 | 779.5
373.24 K, 80000 kPa | 735.9 | 745.2 | 751.5 | 758.4 | 761.6 | 772.3 | 786.1
373.24 K, 90000 kPa | 743.2 | 752.3 | 758.4 | 765.2 | 768.4 | 778.8 | 792.3
373.24 K, 100000 kPa | 750 | 758.8 | 764.9 | 771.5 | 774.6 | 784.8 | 798.2
373.24 K, 110000 kPa | 756.3 | 765.1 | 771 | 777.6 | 780.6 | 790.6 | 803.6
373.24 K, 120000 kPa | 762.3 | 770.9 | 776.8 | 783.2 | 786.1 | 796 | 808.8
373.24 K, 130000 kPa | 768 | 776.5 | 782.3 | 788.7 | 791.5 | 801.3 | 813.9
373.24 K, 140000 kPa | 773.3 | 781.8 | 787.4 | 793.7 | 796.6 | 806.1 | 818.6
393.28 K, 1000 kPa | 609.5 | 623.6 | 633.2 | 644 | 648.8 | 665 | 686.4
393.28 K, 5000 kPa | 622.1 | 635 | 643.9 | 654 | 658.4 | 673.7 | 693.9
393.28 K, 10000 kPa | 635 | 647 | 655.3 | 664.6 | 668.8 | 683.2 | 702.2
393.28 K, 15000 kPa | 645.8 | 657.1 | 665 | 673.9 | 677.9 | 691.5 | 709.7
393.28 K, 20000 kPa | 655.2 | 666 | 673.6 | 682 | 685.8 | 698.9 | 716.3
393.28 K, 25000 kPa | 663.5 | 674 | 681.2 | 689.5 | 693.1 | 705.7 | 722.6
393.28 K, 30000 kPa | 671.1 | 681.1 | 688.2 | 696.2 | 699.8 | 712 | 728.4
393.28 K, 35000 kPa | 677.9 | 687.8 | 694.7 | 702.5 | 705.9 | 717.8 | 733.8
393.28 K, 40000 kPa | 684.3 | 694 | 700.7 | 708.3 | 711.6 | 723.2 | 738.8
393.28 K, 45000 kPa | 690.2 | 699.6 | 706.2 | 713.7 | 717 | 728.3 | 743.6
393.28 K, 50000 kPa | 695.8 | 705.1 | 711.5 | 718.8 | 722 | 733.1 | 748.1
393.28 K, 55000 kPa | 701.1 | 710.3 | 716.6 | 723.7 | 726.9 | 737.8 | 752.5
393.28 K, 60000 kPa | 705.9 | 714.9 | 721.1 | 728.2 | 731.3 | 742.1 | 756.5
393.28 K, 65000 kPa | 710.6 | 719.4 | 725.7 | 732.5 | 735.6 | 746.3 | 760.4
393.28 K, 70000 kPa | 715.2 | 723.9 | 729.9 | 736.8 | 739.9 | 750.3 | 764.3
393.28 K, 80000 kPa | 723.5 | 732 | 738 | 744.7 | 747.6 | 757.7 | 771.4
393.28 K, 90000 kPa | 731.3 | 739.7 | 745.5 | 752 | 754.9 | 764.8 | 778.1
393.28 K, 100000 kPa | 738.4 | 746.7 | 752.4 | 758.7 | 761.6 | 771.3 | 784.3
393.28 K, 110000 kPa | 745.3 | 753.3 | 758.9 | 765.2 | 768 | 777.5 | 790.3
393.28 K, 120000 kPa | 751.4 | 759.4 | 764.9 | 771.1 | 773.8 | 783.2 | 795.8
393.28 K, 130000 kPa | 757.4 | 765.3 | 770.8 | 776.8 | 779.6 | 788.8 | 801.1
393.28 K, 140000 kPa | 763.1 | 770.8 | 776.3 | 782.3 | 784.9 | 794.1 | 806.2
